Paper PMC7076739, “Cytotoxycity and antiplasmodial activity of phenolic derivatives from Albizia zygia (DC.) J.F. Macbr. (Mimosaceae)” (BMC Complementary Medicine and Therapies, 2020)
Read-outs that look alike come from different tables or passages of the source. One block for each compound: values may come before it.

How the values were obtained:
[1] = tested on: P. falciparum strain 3D7; test: P. falciparum 3D7 lactate dehydrogenase assay; assay type: cell-based, Plasmodium falciparum; conditions: for IC50: read-out: IC50 against P. falciparum; for SI = IC50 HepG2 cell/IC50 P. falciparum: selectivity index, HepG2 vs P. falciparum; for times more active than natural precursor quercetin 3-O-α-L-rhamnopyranoside (2) against P. falciparum: antiplasmodial activity, strain 3D7
Experimental: P. falciparum 3D7 lactate dehydrogenase assay: Parasites of the P. falciparum strain 3D7 were grown in fresh group 0 positive human erythrocytes, obtained from the Centro Regional de Transfusion Sanguınea-SAS (Granada, Spain). This assay was performed in duplicate for each compound using a sixteen (16) point dose response curve (½ serial dilutions) with concentrations starting from 50 μM until 1.5 nM to determine the IC50s of the compounds. Adding 25 μL of P. falciparum 3D7 parasite culture (per well) containing parasitized red blood cells at 0.25% parasitaemia and 2% haematocrit in RPMI-1640, 5% Albumax II, 2% […] 0.3% glutamine and 150 μM hypoxanthine and incubated at 37 °C for 72 h with 5% CO2, 5% O2 and 95% N2. For negative and positive growth controls, 10 μM chloroquine and complete parasite growth medium were respectively used. The final readouts of the assay was done by measuring the absorbance of the reactions at 650 nm in an Envision plate reader (Perkin Elmer, USA) and the results analysed by Genedata software (GenedataAG, Basel, Switzerland), parasite growth was measured by LDH assay as previously described.
The natural compounds isolated from the leaves of A. zygia as well as their semi-synthetic derivatives were tested against Plasmodium falciparum (Table 1) using a microdilution method in liquid medium as previously described.

[2] = tested on: MCF-7; test: MTT cytotoxicity assay, MCF-7; assay type: cell-based; conditions: Homo sapiens, MCF7, 72 h, read-out: IC50 MCF-7
Excerpt: (§1) Anticancer assays: Five tumor cell lines (MiaPaca-2 (CRL-1420), a carcinoma pancreatic […]; Hep G2 (HB-80665), a perpetual cell line which was derived from the liver tissue of a […] with a well-differentiated hepatocellular carcinoma; A549 (CCL-185), a carcinoma lung from […]; A2058 (CRL-11147), Human skin melanoma from an adult derived from lymph node and MCF-7 (HTB-22), a breast adenocarcinoma […]) were obtained from ATCC. The MTT (3-(4,5-dimethylthiazol-2-yl)-2,5-diphenyltetrazoliumbromide) colorimetric assay, which measures mitochondrial metabolic activity, was employed to estimate the amount of living cells. According to the huge amount of celles to be plated, SelecT (TAP Biosystems, Royston, UK), a cell culture robotic system was used to process ten thousand cells per well (for 72 h assay). Cells were seeded at a concentration of 1× 10^4 cells/well in 200 μl culture medium and incubated at 37 °C in 5% CO2. After 24 h, the automated liquid-handling system Biomek FX (Beckman Coulter, Pasadena, CA, USA) was used to replace the medium with a final volume of 200 μL and 1 μL of compound (dilution 1/200) and to add controls to the plates and which were then be incubated for 72 h. The test compounds were examined in triplicate with serial two-fold dilutions. After incubation, MTT solution was prepared at 5 mg/mL in PBS 1X and then diluted at 0.5 mg/mL in MEM without phenol red. The sample solution in wells was removed and 100 μL of MTT dye was added to each well. The plates were gently shaken and incubated for 3 h at 37 °C in 5% CO2 incubator. The supernatant was removed and 100 μL of DMSO 100% was added. The plates were gently shaken to solubilize theoriginated formazan and absorbance at 570 nm was read in a Victor2 Wallac spectrofluorometer (PerkinElmer, Waltham, MA, USA). IC50 values were calculated as the concentration that decreases 50% of the cell viability using Genedata Screener software (Genedata AG, Basel, Switzerland). Curve fitting followed the Smart Fit strategy with Hill model selection.

[3] = tested on: A2058; test: MTT cytotoxicity assay, A2058; assay type: cell-based; conditions: Homo sapiens, A2058, 72 h, read-out: IC50 A2058
Excerpt: as §1

[4] = tested on: HepG2; test: MTT cytotoxicity assay, HepG2; assay type: cell-based; conditions: Homo sapiens, read-out: IC50 HepG2
Excerpt: as §1

[5] = tested on: A-549; test: MTT cytotoxicity assay, A-549; assay type: cell-based; conditions: Homo sapiens, read-out: IC50 A-549
Excerpt: as §1

[6] = tested on: MiaPaca-2; test: MTT cytotoxicity assay, MiaPaca-2; assay type: cell-based; conditions: Homo sapiens, read-out: IC50 MiaPaca-2
Excerpt: as §1

[7] = Plasmodium falciparum, 3D7, 72 h
[8] = Plasmodium falciparum, 3D7, 72 h, strain 3D7, 72 h, LDH readout

- IC50 [1, 7]: 0.00296 µM
Structure (SMILES): CCN(CC)CCCC(C)Nc1ccnc2cc(Cl)ccc12 (stereo not shown) [Chloroquine, chloroquine, reference compound]

- IC50 [1, 8]: > 100 µM
Structure (SMILES): O=C(O)Cc1ccc(O)cc1OC1OC(CO)C(O)C(O)C1O [Compound 1, 2-O-β-D-glucopyranosyl-4-hydroxyphenylacetic acid]
- IC50 ([2]; MTT, 72 h): 42.7 ± 0.25 µM
- IC50 ([3]; MTT, 72 h): 66.7 ± 0.25 µM
- IC50 ([4]; HepG2, MTT, 72 h): 121.2 ± 0.25 µM
- IC50 ([5]; A549, MTT, 72 h): 121.2 ± 0.25 µM
- IC50 ([6]; MIA PaCa-2, MTT, 72 h): 30.3 ± 0.25 µM

Structure (SMILES): C[C@@H]1O[C@@H](Oc2c(-c3ccc(O)c(O)c3)oc3cc(O)cc(O)c3c2=O)[C@H](O)[C@H](O)[C@H]1O [Compound 2, quercetin 3-O-α-L-rhamnopyranoside]
- IC50 [1, 7]: 25.1 ± 0.25 µM
- SI = IC50 HepG2 cell/IC50 P. falciparum [1]: (3.49)
- IC50 [2]: 87.5 ± 0.25 µM
- IC50 [3]: 87.5 ± 0.25 µM
- IC50 ([4]; HepG2, 72 h): 87.5 ± 0.25 µM
- IC50 ([5]; A549, 72 h): 89.5 ± 0.25 µM
- IC50 ([6]; MIA PaCa-2, 72 h): 87.5 ± 0.25 µM

- IC50 [1, 8]: 19 ± 0.25 µM
Structure (SMILES): C[C@@H]1O[C@@H](Oc2c(-c3ccc(O)cc3)oc3cc(O)cc(O)c3c2=O)[C@H](O)[C@H](O)[C@H]1O [Compound 3, kaempferol 3-O-α-L-rhamnopyranoside]
- SI = IC50 HepG2 cell/IC50 P. falciparum [1]: (1.22)
- IC50 ([2]; MTT, 72 h): 46.4 ± 0.25 µM
- IC50 ([3]; MTT, 72 h): 46.4 ± 0.25 µM
- IC50 ([4]; HepG2, MTT, 72 h): 23.2 ± 0.25 µM
- IC50 ([5]; A549, MTT, 72 h): 23.2 ± 0.25 µM
- IC50 ([6]; MIA PaCa-2, MTT, 72 h): 46.4 ± 0.25 µM

- IC50 [1, 8]: > 100 µM
Structure (SMILES): C[C@@H]1O[C@@H](Oc2ccc(-c3oc4cc(O)cc(O)c4c(=O)c3O[C@@H]3O[C@@H](C)[C@H](O)[C@@H](O)[C@H]3O)cc2O)[C@H](O)[C@H](O)[C@H]1O [Compound 4, quercetin 3,4′-di-O-α-L-rhamnopyranoside]
- IC50 ([2]; MTT, 72 h): 17.3 ± 0.25 µM
- IC50 ([3]; MTT, 72 h): 34.6 ± 0.25 µM
- IC50 ([4]; HepG2, MTT, 72 h): 17.3 ± 0.25 µM
- IC50 ([5]; A549, MTT, 72 h): 34.6 ± 0.25 µM
- IC50 ([6]; MIA PaCa-2, MTT, 72 h): 17.3 ± 0.25 µM

- IC50 [1, 8]: > 100 µM
Structure (SMILES): C[C@@H]1O[C@@H](Oc2ccc(-c3oc4cc(O)cc(O)c4c(=O)c3O[C@@H]3O[C@@H](C)[C@H](O)[C@@H](O)[C@H]3O)cc2)[C@H](O)[C@H](O)[C@H]1O [Compound 5, kaempferol 3,4′-di-O-α-L-rhamnopyranoside]
- IC50 ([2]; MTT, 72 h): 33.7 ± 0.25 µM
- IC50 ([3]; MTT, 72 h): 33.7 ± 0.25 µM
- IC50 ([4]; HepG2, MTT, 72 h): 16.8 ± 0.25 µM
- IC50 ([5]; A549, MTT, 72 h): 33.7 ± 0.25 µM
- IC50 ([6]; MIA PaCa-2, MTT, 72 h): 16.8 ± 0.25 µM

- IC50 [1, 8]: > 100 µM
Structure (SMILES): CC(=O)OCC1OC(Oc2cc(O)ccc2CC(=O)O)C(OC(C)=O)C(OC(C)=O)C1OC(C)=O (stereo not shown) [Compound 7]
- IC50 ([2]; MTT, 72 h): 37 ± 0.25 µM
- IC50 ([3]; MTT, 72 h): 37 ± 0.25 µM
- IC50 ([4]; HepG2, MTT, 72 h): 37 ± 0.25 µM
- IC50 ([5]; A549, MTT, 72 h): 20.1 ± 0.25 µM
- IC50 ([6]; MIA PaCa-2, MTT, 72 h): 10 ± 0.25 µM

- IC50 [1, 8]: > 100 µM
Structure (SMILES): CC(=O)OCC1OC(Oc2cc(OC(C)=O)ccc2CC(=O)O)C(OC(C)=O)C(OC(C)=O)C1OC(C)=O (stereo not shown) [Compound 8]
- IC50 ([2]; MTT, 72 h): 40.2 ± 0.25 µM
- IC50 ([3]; MTT, 72 h): 40.2 ± 0.25 µM
- IC50 ([4]; HepG2, MTT, 72 h): 40.2 ± 0.25 µM
- IC50 ([5]; A549, MTT, 72 h): 20.1 ± 0.25 µM
- IC50 ([6]; MIA PaCa-2, MTT, 72 h): 18.5 ± 0.25 µM

- IC50 [1, 8]: 7.47 ± 0.25 µM
- IC50 ([1]; strain 3D7, 72 h, LDH readout): 7.5 ± 0.25 µM
Structure (SMILES): CC(=O)OC1C(C)OC(Oc2c(-c3ccc(O)c(O)c3)oc3cc(O)cc(O)c3c2=O)C(OC(C)=O)C1OC(C)=O (stereo not shown) [Compound 9]
- times more active than natural precursor quercetin 3-O-α-L-rhamnopyranoside (2) against P. falciparum [1]: over 3 times
- IC50 ([2]; MTT, 72 h): 10.8 ± 0.25 µM
- IC50 ([3]; MTT, 72 h): 12.2 ± 0.25 µM
- IC50 ([4]; HepG2, MTT, 72 h): 22.6 ± 0.25 µM
- IC50 ([5]; A549, MTT, 72 h): 34.8 ± 0.25 µM
- IC50 ([6]; MIA PaCa-2, MTT, 72 h): 17.4 ± 0.25 µM

- IC50 [1, 8]: 6.77 ± 0.25 µM
- IC50 ([1]; strain 3D7, 72 h, LDH readout): 6.8 ± 0.25 µM
Structure (SMILES): CC(=O)Oc1cc(O)c2c(=O)c(OC3OC(C)C(OC(C)=O)C(OC(C)=O)C3OC(C)=O)c(-c3ccc(O)c(O)c3)oc2c1 (stereo not shown) [Compound 10]
- times more active than natural precursor quercetin 3-O-α-L-rhamnopyranoside (2) against P. falciparum [1]: over 3 times
- IC50 ([4]; HepG2, MTT, 72 h): 64.9 ± 0.25 µM
- IC50 ([5]; A549, MTT, 72 h): 30.5 ± 0.25 µM
- IC50 ([6]; MIA PaCa-2, MTT, 72 h): 64.9 ± 0.25 µM

Structure (SMILES): COc1cccc2c1C(=O)c1c(O)c3c(c(O)c1C2=O)C[C@@](O)(C(=O)CO)C[C@@H]3O[C@H]1C[C@H](N)[C@H](O)[C@H](C)O1 [Doxorubicin, reference compound]
- IC50 ([2]; MTT, 72 h): < 7e-05 µM
- IC50 ([3]; MTT, 72 h): < 7e-05 µM
- IC50 ([4]; HepG2, MTT, 72 h): < 7e-05 µM
- IC50 ([5]; A549, MTT, 72 h): < 7e-05 µM
- IC50 ([6]; MIA PaCa-2, MTT, 72 h): < 7e-05 µM
